What was measured:
thrombin [1] = target: T1, thrombin (Homo sapiens, UniProt P00734); assay: Determination of the thrombin-inhibitory activity in plasma samples (ecarin-activated); type: biochemical; conditions: citrate plasma, ecarin activation, fluorogenic thrombin substrate; in some cases means of individual determinations
Experimental: To determine the inhibition of thrombin in plasma samples, plasma […] is activated by ecarin. Thrombin activity and/or its inhibition by potential inhibitors is/are then measured fluorenscently by addition of a substrate.
The substances to be tested are dissolved in various concentrations in dimethyl sulphoxide and diluted with water. In white 96-well flat-bottomed plates, 20 μl of substance dilution are mixed with 20 μl of ecarin solution (ecarin reagent, from Sigma E-0504, final concentration 20 mU per reaction) in Ca buffer (200 mM Hepes+560 mM sodium chloride+10 mM calcium chloride+0.4% PEG) or with 20 μl of Ca buffer (as unstimulated control). Furthermore, 20 μl of fluorogenic thrombin substrate (from Bachem 1-1120, final concentration 50 μmol/1) and 20 μl of citrate plasma (from Octapharma) are added, and the mixture is homogenized well. The plate is measured in a SpectraFluorplus Reader using a 360 nm excitation filter and a 465 nm emission filter every minute over 20 minutes. […] Representative activity data from this test are given in Table 2 below (in some cases as means of individual determinations): […]

thrombin [2] = target: T1, thrombin; assay: Measurement of the thrombin inhibition in buffer; type: biochemical; conditions: human thrombin 0.06 nmol/l in Tris buffer pH 7.4, 22° C., substrate Boc-Asp(OBzl)-Pro-Arg-AMC; in some cases means of individual determinations
Experimental: To determine the thrombin inhibition of the substances listed above, a biochemical test system is constructed in which the conversion of a thrombin substrate is used for determining the enzymatic activity of human thrombin. Here, thrombin cleaves aminomethylcoumarin, which is measured fluorescently, from the peptic substrate. The determinations are carried out in microtitre plates.
Substances to be tested are dissolved in various concentrations in dimethyl sulphoxide and incubated for 15 min with human thrombin (0.06 nmol/l dissolved in 50 mmol/l of Tris buffer [C,C,C-tris(hydroxymethyl)aminomethane], 100 mmol/l of sodium chloride, 0.1% BSA [bovine serum albumin], pH 7.4) at 22° C. The substrate (5 μmol/l Boc-Asp(OBzl)-Pro-Arg-AMC from Bachem) is then added. After 30 min of incubation, the sample is excited at a wavelength of 360 nm and the emission is measured at 460 nm. The measured emissions of the test mixtures with test substance are compared to the control mixtures without test substance (only dimethyl sulphoxide instead of test substance in dimethyl sulphoxide) and IC50 values are calculated from the concentration/activity relationships. Representative activity data from this test are given in Table 1 below (in some cases as means of individual determinations): […]

Structure (SMILES) | IC50 (thrombin [1]) [nM] | IC50 (thrombin [2]) [nM]
COc1cc(C(=O)N2CC(C)(C)NC(=O)C2CC#N)cc2nc(NCc3cc(Cl)ccn3)oc12 (single isomer, unassigned) [Example 84, {1-[(2-{[(4-chloropyridin-2-yl)methyl]amino}-7-methoxy-1,3-benzoxazol-5-yl)carbonyl]-5,5-dimethyl-3-oxopiperazin-2-yl}acetonitrile] | 21 | 11
COc1cc(C(=O)N2CC(C)(C)OCC2(C)C(C)O)cc2nc(NCc3cc(Cl)ccn3)oc12 (stereo not shown) [Example 69, (2-{[(4-Chloropyridin-2-yl)methyl]amino}-7-methoxy-1,3-benzoxazol-5-yl) [5-(1-hydroxyethyl)-2,2,5-trimethylmorpholin-4-yl]methanone] | 27 | 17
COc1cc(C(=O)N2CC(C)OCC2CCO)cc2nc(NCc3cc(Cl)ccn3)oc12 (single isomer, unassigned) [Example 72, (2-{[(4-Chloropyridin-2-yl)methyl]amino}-7-methoxy-1,3-benzoxazol-5-yl) [5-(2-hydroxyethyl)-2-methylmorpholin-4-yl]methanone] | 37 | 29
COc1cc(C(=O)N2CC(C)(C)OC[C@H]2CCO)cc2nc(NC(C)c3cc(Cl)ccn3)oc12 (stereo partly drawn) [Example 59, (2-{[1-(4-Chloropyridin-2-yl)ethyl]amino}-7-methoxy-1,3-benzoxazol-5-yl)[(5R)-5-(2-hydroxyethyl)-2,2-dimethylmorpholin-4-yl]methanone] | 90 | 60
COc1cc(C(=O)N2CC(C)OCC2(C)CO)cc2nc(NCc3cc(Cl)ccn3)oc12 (single isomer, unassigned) [Example 19, (2-{[(4-Chloropyridin-2-yl)methyl]amino}-7-methoxy-1,3-benzoxazol-5-yl) [5-(hydroxymethyl)-2,5-dimethylmorpholin-4-yl]methanone] | 53 | 34
CC[C@@H]1COC(C)(CCO)CN1C(=O)c1cc(OC)c2oc(NCc3cc(Cl)ccn3)nc2c1 (stereo partly shown) [Example 28] | 17 | 3.2
COc1cc(C(=O)N2CC(C)(C)OCC2(C)CO)cc2nc(NCc3cc(Cl)ccn3)oc12 (single isomer, unassigned) [Example 39, (2-{[(4-Chloropyridin-2-yl)methyl]amino}-7-methoxy-1,3-benzoxazol-5-yl) [5-(hydroxymethyl)-2,2,5-trimethylmorpholin-4-yl]methanone] | 40 | 11
COc1cc(C(=O)N2CC(C)(CCO)OCC2(C)C)cc2nc(NCc3cc(Cl)ccn3)oc12 (single isomer, unassigned) [Example 33, (2-{[(4-Chloropyridin-2-yl)methyl]amino}-7-methoxy-1,3-benzoxazol-5-yl) [2-(2-hydroxyethyl)-2,5,5-trimethylmorpholin-4-yl]methanone] | 14 | 7.2
COc1cc(C(=O)N2C[C@H](OC3CC3)C[C@H]2CO)cc2nc(NCc3cc(Cl)ccn3)oc12 [Example 12, (2-{[(4-Chloropyridin-2-yl)methyl]amino}-7-methoxy-1,3-benzoxazol-5-yl)[(2S,4R)-4-(cyclopropyloxy)-2-(hydroxymethyl)pyrrolidin-1-yl]methanone] | 8.9 | 4.4
COc1cc(C(=O)N2CC(C)(CC(C)O)OCC2CF)cc2nc(NCc3cc(Cl)ccn3)oc12 (single isomer, unassigned) [Example 23, (2-{[(4-Chloropyridin-2-yl)methyl]amino}-7-methoxy-1,3-benzoxazol-5-yl) [5-(fluoromethyl)-2-(2-hydroxypropyl)-2-methylmorpholin-4-yl]methanone] | 6.5 | 0.8
COc1cc(C(=O)N2CC(C)OCC2CCO)cc2nc(NCc3cc(Cl)ccn3)oc12 (single isomer, unassigned) [Example 71, (2-{[(4-Chloropyridin-2-yl)methyl]amino}-7-methoxy-1,3-benzoxazol-5-yl) [5-(2-hydroxyethyl)-2-methylmorpholin-4-yl]methanone] |  | 97
CCC1C(=O)NC(C)CN1C(=O)c1cc(OC)c2oc(NCc3cc(Cl)ccn3)nc2c1 (single isomer, unassigned) [Example 80, 4-[(2-{[(4-Chloropyridin-2-yl)methyl]amino}-7-methoxy-1,3-benzoxazol-5-yl)carbonyl]-3-ethyl-6-methylpiperazin-2-one] | 16 | 16
CC[C@@H]1COC(C)(CCO)CN1C(=O)c1cc(OC)c2oc(NCc3cc(Cl)ccn3)nc2c1 (single isomer, unassigned) [Example 29] | 8.8 | 1.9
COc1cc(C(=O)N2CCCC2(C)C(=O)N2CC(F)(F)C2)cc2nc(NCc3cc(Cl)ccn3)oc12 (single isomer, unassigned) [Example 16, (2-{[(4-Chloropyridin-2-yl)methyl]amino}-7-methoxy-1,3-benzoxazol-5-yl){2-[(3,3-difluoroazetidin-1-yl)carbonyl]-2-methylpyrrolidin-1-yl}methanone] | 36 | 30
COc1cc(C(=O)N2CC(C)OCC2CC(C)(C)O)cc2nc(NCc3cc(Cl)ccn3)oc12 (racemic) [Example 55, (2-{[(4-Chloropyridin-2-yl)methyl]amino}-7-methoxy-1,3-benzoxazol-5-yl) [5-(2-hydroxy-2-methylpropyl)-2-methylmorpholin-4-yl]methanone] | 33 | 21
COc1cc(C(=O)N2CC(C)OCC2C(C)(C)O)cc2nc(NCc3cc(Cl)ccn3)oc12 (single isomer, unassigned) [Example 36, (2-{[(4-Chloropyridin-2-yl)methyl]amino}-7-methoxy-1,3-benzoxazol-5-yl) [5-(2-hydroxypropan-2-yl)-2-methylmorpholin-4-yl]methanone] | 57 | 39
COc1cc(C(=O)N2C[C@H](OC3CC3)C[C@H]2CO)cc2nc(NC(C)c3cc(Cl)ccn3)oc12 (single isomer, unassigned) [Example 14] |  | 550
CCO[C@@H]1CC(CO)N(C(=O)c2cc(OC)c3oc(NC(C)c4cc(Cl)ccn4)nc3c2)C1 (single isomer, unassigned) [Example 5] |  | 2800
[2H]C([2H])(C)O[C@@H]1CC(CO)N(C(=O)c2cc(OC)c3oc(NC(C)c4cc(Cl)ccn4)nc3c2)C1 (single isomer, unassigned) [Example 8] |  | 2600
COc1cc(C(=O)N2CC(C)OCC2CC(C)O)cc2nc(NCc3cc(Cl)ccn3)oc12 (single isomer, unassigned) [Example 66, (2-{[(4-Chloropyridin-2-yl)methyl]amino}-7-methoxy-1,3-benzoxazol-5-yl) [5-(2-hydroxypropyl)-2-methylmorpholin-4-yl]methanone] |  | 28
COc1cc(C(=O)N2CC(C)OCC2(C)C)cc2nc(NCc3cc(Cl)ccn3)oc12 (racemic) [Example 44, (2-{[(4-Chloropyridin-2-yl)methyl]amino}-7-methoxy-1,3-benzoxazol-5-yl)(2,5,5-trimethylmorpholin-4-yl)methanone] |  | 32
COc1cc(C(=O)N2CC(C)(C)OCC2CC(C)O)cc2nc(NCc3cc(Cl)ccn3)oc12 (single isomer, unassigned) [Example 64, (2-{[(4-Chloropyridin-2-yl)methyl]amino}-7-methoxy-1,3-benzoxazol-5-yl) [5-(2-hydroxypropyl)-2,2-dimethylmorpholin-4-yl]methanone] |  | 44
COc1cc(C(=O)N2CC(C)(C)NC(=O)C2CC(N)=O)cc2nc(NCc3cc(Cl)ccn3)oc12 (racemic) [Example 82, 2-{1-[(2-{[(4-Chloropyridin-2-yl)methyl]amino}-7-methoxy-1,3-benzoxazol-5-yl)carbonyl]-5,5-dimethyl-3-oxopiperazin-2-yl}acetamide] |  | 170
CCO[C@@H]1CC(CO)N(C(=O)c2cc(OC)c3oc(NCc4cc(Cl)ccn4)nc3c2)C1 (single isomer, unassigned) [Example 3] |  | 330
COc1cc(C(=O)N2CC(C)CCC2CC2(O)CC2)cc2nc(NCc3cc(Cl)ccn3)oc12 (single isomer, unassigned) [Example 88, (2-{[(4-Chloropyridin-2-yl)methyl]amino}-7-methoxy-1,3-benzoxazol-5-yl){2-[(1-hydroxycyclopropyl)methyl]-5-methylpiperidin-1-yl}methanone] |  | 6.6

Source: US20160108027A1, “SUBSTITUTED BENZOXAZOLES” (BAYER PHARMA AKTIENGESELLSCHAFT, priority 2013, published 2016)
